Counter-ions that a name gives are not always drawn.

Consider 5 molecules from patent publication US20250049727A1, “COMPOSITIONS FOR THE DELIVERY OF PAYLOAD MOLECULES TO AIRWAY EPITHELIUM” (ModernaTX, Inc., priority 2021, published 2025).

This data set is described as follows: Nanoparticle zeta potential (Malvern Zetasizer Nano ZS). The note with it: LNP with sterol amine, core LNP Compound 18, DSPC, Cholesterol, and DMG-PEG 2K, [mRNA] 0.01 mg/mL in 0.1×PBS. The data set is classed as physicochemical. The protocol: LNPs were prepared according to Example 2. Zeta potential was measured by diluting LNPs to [mRNA] 0.01 mg/mL in 0.1×PBS on a Malvern Zetasizer (Nano ZS).

`CC(C)CCC[C@@H](C)[C@H]1CC[C@H]2[C@@H]3CC=C4C[C@@H](OC(=O)NCCNC(=N)N)CC[C@]4(C)[C@H]3CC[C@]12C` [SA23, (3S,8S,9S,10R,13R,14S,17R)-10,13-dimethyl-17-((R)-6-methylheptan-2-yl)-2,3,4,7,8,9,10,11,12,13,14,15,16,17-tetradecahydro-1H-cyclopenta[a]phenanthren-3-yl (2-guanidinoethyl)carbamate, hydrochloride salt]: the “Zeta Potential” value (β-sitosterol) was 12.7 mV.

As for `CC(C)CCC[C@@H](C)[C@H]1CC[C@H]2[C@@H]3CC=C4C[C@@H](OC(=O)N(CCCN)CCCCN)CC[C@]4(C)[C@H]3CC[C@]12C` [SA29, (3S,8S,9S,10R,13R,14S,17R)-10,13-Dimethyl-17-((R)-6-methylheptan-2-yl)-2,3,4,7,8,9,10,11,12,13,14,15,16,17-tetradecahydro-1H-cyclopenta[a]phenanthren-3-yl (4-aminobutyl)(3-aminopropyl)carbamate dihydrochloride], the “Zeta Potential” value (β-sitosterol) was determined as 8.3 mV.

Take `CC(C)CCC[C@@H](C)[C@H]1CC[C@H]2[C@@H]3CC=C4C[C@@H](OC(=O)CCC(=O)N(CCCN)CCCCN)CC[C@]4(C)[C@H]3CC[C@]12C` [SA31, (3S,8S,9S,10R,13R,14S,17R)-10,13-Dimethyl-17-((R)-6-methylheptan-2-yl)-2,3,4,7,8,9,10,11,12,13,14,15,16,17-tetradecahydro-1H-cyclopenta[a]phenanthren-3-yl 4-((4-aminobutyl)(3-aminopropyl)amino)-4-oxobutanoate dihydrochloride]: the “Zeta Potential” value (β-sitosterol) came out at 8.6 mV. As to `CC(C)CCC[C@@H](C)[C@H]1CC[C@H]2[C@@H]3CC=C4C[C@@H](OC(=O)N(CCCN)CCCCNCCCN)CC[C@]4(C)[C@H]3CC[C@]12C` [SA3, (3S,8S,9S,10R,13R,14S,17R)-10,13-dimethyl-17-((R)-6-methylheptan-2-yl)-2,3,4,7,8,9,10,11,12,13,14,15,16,17-tetradecahydro-1H-cyclopenta[a]phenanthren-3-yl (3-aminopropyl)(4-((3-aminopropyl)amino)butyl)carbamate, trihydrochloride salt], the “Zeta Potential” value was determined as 10.6 mV. In the case of `CC(C)CCC[C@@H](C)[C@H]1CC[C@H]2[C@@H]3CC=C4C[C@@H](OC(=O)NCCCNCCCCN)CC[C@]4(C)[C@H]3CC[C@]12C` [SA30, (3S,8S,9S,10R,13R,14S,17R)-10,13-Dimethyl-17-((R)-6-methylheptan-2-yl)-2,3,4,7,8,9,10,11,12,13,14,15,16,17-tetradecahydro-1H-cyclopenta[a]phenanthren-3-yl (3-((4-aminobutyl)amino)propyl)carbamate dihydrochloride], the “Zeta Potential” value (β-sitosterol) amounted to 8.7 mV.
